Results taken from PubChem BioAssay (NCI).
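Assay format: 96-well plates, 48-hour exposure. At the TGI there is no net growth.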 Activity calls are given as the source filed them. Cut-off read from the data, not from the text of the source: active = GI50 below about 0.43 µM; inactive = the rest.

Tests used:
Assay in all cases: DTP human tumour cell line panel, 48 h
SNB-19 CNS = test system: SNB-19 CNS
NCI-H226 lung = test system: NCI-H226 lung
XF 498 CNS = test system: XF 498 CNS
SNB-75 CNS = test system: SNB-75 CNS
A498 renal = test system: A498 renal
SN12C renal = test system: SN12C renal
HCT-116 colon = test system: HCT-116 colon
COLO 205 colon = test system: COLO 205 colon
A549 NSCLC = test system: A549 NSCLC
OVCAR-4 ovarian = test system: OVCAR-4 ovarian
EKVX NSCLC = test system: EKVX NSCLC
SNB-78 CNS = test system: SNB-78 CNS
DMS 273 small cell lung = test system: DMS 273 small cell lung
SW-620 colon = test system: SW-620 colon
K-562 leukemia = test system: K-562 leukemia
786-0 renal = test system: 786-0 renal
CAKI-1 renal = test system: CAKI-1 renal
OVCAR-3 ovarian = test system: OVCAR-3 ovarian
SF-295 CNS = test system: SF-295 CNS
M14 melanoma = test system: M14 melanoma
LXFL 529 NSCLC = test system: LXFL 529 NSCLC
RPMI-8226 leukemia = test system: RPMI-8226 leukemia
MOLT-4 leukemia = test system: MOLT-4 leukemia
NCI-H522 lung = test system: NCI-H522 lung
M19-MEL melanoma = test system: M19-MEL melanoma
LOX IMVI melanoma = test system: LOX IMVI melanoma
NCI-H460 lung = test system: NCI-H460 lung
SF-539 CNS = test system: SF-539 CNS
SF-268 CNS = test system: SF-268 CNS
HOP-62 NSCLC = test system: HOP-62 NSCLC
UACC-62 melanoma = test system: UACC-62 melanoma
U251 CNS = test system: U251 CNS
OVCAR-8 ovarian = test system: OVCAR-8 ovarian
UACC-257 melanoma = test system: UACC-257 melanoma
RXF 393 renal = test system: RXF 393 renal
SK-MEL-2 melanoma = test system: SK-MEL-2 melanoma
DLD-1 colon = test system: DLD-1 colon
KM12 colon = test system: KM12 colon
ACHN renal = test system: ACHN renal
NCI-H23 lung = test system: NCI-H23 lung
IGROV1 ovarian = test system: IGROV1 ovarian
UO-31 renal = test system: UO-31 renal
OVCAR-5 ovarian = test system: OVCAR-5 ovarian
HT29 colon = test system: HT29 colon
HOP-92 NSCLC = test system: HOP-92 NSCLC
CCRF-CEM leukemia = test system: CCRF-CEM leukemia
HCC-2998 colon = test system: HCC-2998 colon
TK-10 renal = test system: TK-10 renal
HCT-15 colon = test system: HCT-15 colon
HL-60(TB) leukemia = test system: HL-60(TB) leukemia
SK-MEL-28 melanoma = test system: SK-MEL-28 melanoma
SK-OV-3 ovarian = test system: SK-OV-3 ovarian
SK-MEL-5 melanoma = test system: SK-MEL-5 melanoma
DMS 114 small cell lung = test system: DMS 114 small cell lung
KM20L2 colon = test system: KM20L2 colon
MALME-3M melanoma = test system: MALME-3M melanoma
SR leukemia = test system: SR leukemia

Measured: TGI

O=C1c2cccc(O)c2C(=O)c2cccc(O)c21
not listed: HL-60(TB) leukemia | SK-MEL-28 melanoma | SK-OV-3 ovarian | SK-MEL-5 melanoma | DMS 114 small cell lung | KM20L2 colon | MALME-3M melanoma | SR leukemia
> 100 µM: all other assays above

Cc1nc(N)nn1C1OCC(O)C(O)C1O (centres undefined)
not listed: NCI-H226 lung | M19-MEL melanoma | LOX IMVI melanoma | OVCAR-5 ovarian | HOP-92 NSCLC | SR leukemia
> 100 µM: all other assays above

O=C1CCC2(c3ccc(F)cc3)Nc3ncccc3N12 (centres undefined)
not listed: SNB-19 CNS | HCT-116 colon | DMS 273 small cell lung | SK-OV-3 ovarian | DMS 114 small cell lung | SR leukemia
> 100 µM: all other assays above

C[C@@]1(C(=O)c2ccccc2)N(c2ccccc2)[C@@]1(C)C(=O)c1ccccc1
not listed: A498 renal | HCT-116 colon | OVCAR-4 ovarian | M19-MEL melanoma | HCC-2998 colon | SK-MEL-28 melanoma | SK-MEL-5 melanoma
inactive: all other assays above

COc1ccc(/C=c2/sc3n(c2=O)NC2(CCCCC2)NN=3)cc1
not listed: A498 renal | RPMI-8226 leukemia | HOP-62 NSCLC | U251 CNS | UACC-257 melanoma | ACHN renal | HCT-15 colon | HL-60(TB) leukemia | DMS 114 small cell lung
> 100 µM: all other assays above
